Test results reported in ChEMBL document CHEMBL1201862, “PubChem BioAssay data set” (2004).
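Growth conditions: 96-well plates. Treatment: test compound, 48 hours, 5 concentrations. Analysis: linear interpolation between bracketing concentrations; unreached endpoints set to highest concentration. The concentration for 50% growth inhibition is given as GI50.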 Activity calls are given as the source filed them. No stated cut-off is given here; in the data, active = GI50 up to about 1.1 µM and inactive = higher.

Experiments:
Assay in all cases: growth of human tumour cells (NCI), 48 h
CCRF-CEM = test system: CCRF-CEM
SN12C = test system: SN12C
HCT-15 = test system: HCT-15
IGROV-1 = test system: IGROV-1
SF-268 = test system: SF-268
NCI-H460 = test system: NCI-H460
TK-10 = test system: TK-10
SK-MEL-28 = test system: SK-MEL-28
NCI-H522 = test system: NCI-H522
MDA-N = test system: MDA-N
LOX IMVI = test system: LOX IMVI
DU-145 = test system: DU-145
NCI-H226 = test system: NCI-H226
SK-OV-3 = test system: SK-OV-3
KM12 = test system: KM12
ACHN = test system: ACHN
COLO 205 = test system: COLO 205
U-251 = test system: U-251
HL-60 = test system: HL-60
EKVX = test system: EKVX

SMILES	GI50 (CCRF-CEM)	GI50 (SN12C)	GI50 (HCT-15)	GI50 (IGROV-1)	GI50 (SF-268)	GI50 (NCI-H460)	GI50 (TK-10)	GI50 (SK-MEL-28)	GI50 (NCI-H522)	GI50 (MDA-N)	GI50 (LOX IMVI)	GI50 (DU-145)	GI50 (NCI-H226)	GI50 (SK-OV-3)	GI50 (KM12)	GI50 (ACHN)	GI50 (COLO 205)	GI50 (U-251)	GI50 (HL-60)	GI50 (EKVX)
O=C(Cn1c2ccc(Br)cc2c2nc3ccccc3nc21)Nc1ccccc1	11.9 µM (inactive)	42.6 µM (inactive)	25.1 µM	15.3 µM (inactive)	45.2 µM (inactive)	31.8 µM (inactive)	27.7 µM (inactive)	36.1 µM (inactive)	21.6 µM (inactive)	37.7 µM (inactive)	15.8 µM (inactive)	59.2 µM (inactive)	32.6 µM (inactive)	> 100 µM (inactive)	56.8 µM (inactive)	50 µM (inactive)	50.6 µM (inactive)	24 µM (inactive)	–	–
O=C(/C=C/c1ccc(Cl)cc1)Oc1ccc(/C=C2\CCCCC2=O)cc1	55.5 µM (inactive)	> 100 µM (inactive)	> 100 µM	> 100 µM (inactive)	69.7 µM (inactive)	> 100 µM (inactive)	> 100 µM (inactive)	> 100 µM (inactive)	50.8 µM (inactive)	> 100 µM (inactive)	> 100 µM (inactive)	> 100 µM (inactive)	–	–	> 100 µM (inactive)	> 100 µM (inactive)	> 100 µM (inactive)	> 100 µM (inactive)	50.7 µM (inactive)	> 100 µM (inactive)
O=C(O)CCCc1ccc2ccccc2c1	> 100 µM (inactive)	> 100 µM (inactive)	> 100 µM	> 100 µM (inactive)	> 100 µM (inactive)	> 100 µM (inactive)	> 100 µM (inactive)	> 100 µM (inactive)	> 100 µM (inactive)	> 100 µM (inactive)	> 100 µM (inactive)	> 100 µM (inactive)	–	> 100 µM (inactive)	> 100 µM (inactive)	> 100 µM (inactive)	> 100 µM (inactive)	> 100 µM (inactive)	> 100 µM (inactive)	> 100 µM (inactive)
CC(=O)C(I(OS(=O)(=O)c1ccc(C)cc1)c1ccccc1)=P(c1ccccc1)(c1ccccc1)c1ccccc1	26.9 µM (inactive)	15.9 µM (inactive)	> 100 µM	35.6 µM (inactive)	23.7 µM (inactive)	58.5 µM (inactive)	84.9 µM (inactive)	18 µM (inactive)	11.8 µM (inactive)	15 µM (inactive)	–	18.8 µM (inactive)	17.1 µM (inactive)	43.6 µM (inactive)	16.2 µM (inactive)	> 100 µM (inactive)	17.1 µM (inactive)	29.2 µM (inactive)	30.3 µM (inactive)	28 µM (inactive)
Cc1cccc(C(C)(C)C)c1NC(=O)/C(Cc1nc2ccc([N+](=O)[O-])cc2nc1O)=N\NC(=O)C[N+](C)(C)C	–	> 100 µM (inactive)	> 100 µM	> 100 µM (inactive)	> 100 µM (inactive)	> 100 µM (inactive)	–	> 100 µM (inactive)	17.4 µM (inactive)	> 100 µM (inactive)	51.3 µM (inactive)	> 100 µM (inactive)	> 100 µM (inactive)	> 100 µM (inactive)	47.1 µM (inactive)	> 100 µM (inactive)	71.8 µM (inactive)	> 100 µM (inactive)	> 100 µM (inactive)	> 100 µM (inactive)
CCN(CC)C(=S)Oc1cc2oc(=O)cc(C)c2cc1Cl	> 100 µM (inactive)	> 100 µM (inactive)	> 100 µM	> 100 µM (inactive)	36.1 µM (inactive)	> 100 µM (inactive)	> 100 µM (inactive)	> 100 µM (inactive)	80.4 µM (inactive)	> 100 µM (inactive)	68.7 µM (inactive)	> 100 µM (inactive)	> 100 µM (inactive)	–	> 100 µM (inactive)	> 100 µM (inactive)	> 100 µM (inactive)	42.2 µM (inactive)	> 100 µM (inactive)	> 100 µM (inactive)
Cc1cc2nnn(C3CCCCO3)c2cc1C (centres undefined)	> 100 µM (inactive)	> 100 µM (inactive)	> 100 µM	> 100 µM (inactive)	–	> 100 µM (inactive)	> 100 µM (inactive)	–	> 100 µM (inactive)	> 100 µM (inactive)	–	> 100 µM (inactive)	> 100 µM (inactive)	> 100 µM (inactive)	> 100 µM (inactive)	> 100 µM (inactive)	> 100 µM (inactive)	> 100 µM (inactive)	–	> 100 µM (inactive)
CCOC(=O)c1c(C)nc2c(c1-c1cn(-c3ccccc3)nc1-c1ccccc1)C(=O)c1ccccc1-2	> 100 µM (inactive)	> 100 µM (inactive)	> 100 µM	> 100 µM (inactive)	> 100 µM (inactive)	–	> 100 µM (inactive)	> 100 µM (inactive)	> 100 µM (inactive)	> 100 µM (inactive)	> 100 µM (inactive)	> 100 µM (inactive)	> 100 µM (inactive)	> 100 µM (inactive)	0.337 µM (active)	–	> 100 µM (inactive)	> 100 µM (inactive)	–	> 100 µM (inactive)
N#C[BH2-][n+]1cn(C2CC(O)C(COP(=O)(O)OC3CC(n4cnc5c(N)ncnc54)OC3CO)O2)c2nc(N)[nH]c(=O)c21 (centres undefined)	> 100 µM (inactive)	> 100 µM (inactive)	> 100 µM	> 100 µM (inactive)	> 100 µM (inactive)	> 100 µM (inactive)	–	> 100 µM (inactive)	> 100 µM (inactive)	> 100 µM (inactive)	–	> 100 µM (inactive)	> 100 µM (inactive)	–	> 100 µM (inactive)	> 100 µM (inactive)	> 100 µM (inactive)	> 100 µM (inactive)	> 100 µM (inactive)	> 100 µM (inactive)
CCCCCN1CCN(c2ncccn2)CC1	> 100 µM (inactive)	> 100 µM (inactive)	> 100 µM	> 100 µM (inactive)	> 100 µM (inactive)	–	> 100 µM (inactive)	> 100 µM (inactive)	> 100 µM (inactive)	> 100 µM (inactive)	> 100 µM (inactive)	> 100 µM (inactive)	–	–	> 100 µM (inactive)	> 100 µM (inactive)	> 100 µM (inactive)	> 100 µM (inactive)	> 100 µM (inactive)	> 100 µM (inactive)
CCN(CC)CCCNC(=O)c1cc(-c2nccn2C)nc2ccccc12	> 100 µM (inactive)	> 100 µM (inactive)	> 100 µM	> 100 µM (inactive)	> 100 µM (inactive)	59.7 µM (inactive)	> 100 µM (inactive)	–	> 100 µM (inactive)	> 100 µM (inactive)	> 100 µM (inactive)	> 100 µM (inactive)	> 100 µM (inactive)	–	> 100 µM (inactive)	> 100 µM (inactive)	> 100 µM (inactive)	> 100 µM (inactive)	> 100 µM (inactive)	> 100 µM (inactive)
Cc1cc(N(CCC#N)CCC#N)ccc1C(/N=N/c1ccccc1)=N\NC(=O)c1cc(Cl)ccc1O	16.6 µM (inactive)	26.5 µM (inactive)	18.4 µM	26.2 µM (inactive)	30.1 µM (inactive)	24.5 µM (inactive)	14.9 µM (inactive)	–	13.6 µM (inactive)	32.6 µM (inactive)	–	27.5 µM (inactive)	20.5 µM (inactive)	71.4 µM (inactive)	26.1 µM (inactive)	15.8 µM (inactive)	19.7 µM (inactive)	33.1 µM (inactive)	37.9 µM (inactive)	30.5 µM (inactive)
CN(C)/N=N/c1nc2c(c(=O)n(C)c(=O)n2C)n1C	> 100 µM (inactive)	> 100 µM (inactive)	> 100 µM	> 100 µM (inactive)	> 100 µM (inactive)	> 100 µM (inactive)	> 100 µM (inactive)	> 100 µM (inactive)	> 100 µM (inactive)	> 100 µM (inactive)	> 100 µM (inactive)	> 100 µM (inactive)	> 100 µM (inactive)	> 100 µM (inactive)	> 100 µM (inactive)	> 100 µM (inactive)	> 100 µM (inactive)	> 100 µM (inactive)	–	> 100 µM (inactive)
CCOC(=O)NC(=S)NC(C)c1ccccc1 (centres undefined)	> 100 µM (inactive)	–	> 100 µM	> 100 µM (inactive)	> 100 µM (inactive)	–	> 100 µM (inactive)	> 100 µM (inactive)	> 100 µM (inactive)	> 100 µM (inactive)	–	> 100 µM (inactive)	> 100 µM (inactive)	> 100 µM (inactive)	> 100 µM (inactive)	> 100 µM (inactive)	> 100 µM (inactive)	> 100 µM (inactive)	–	> 100 µM (inactive)
Cc1sc(Nc2ccccc2[N+](=O)[O-])c(C#N)c1C	> 100 µM (inactive)	40.3 µM (inactive)	23 µM	–	14.5 µM (inactive)	> 100 µM (inactive)	–	99.3 µM (inactive)	2.7 µM (inactive)	> 100 µM (inactive)	–	65.2 µM (inactive)	39.7 µM (inactive)	66.1 µM (inactive)	> 100 µM (inactive)	31 µM (inactive)	> 100 µM (inactive)	21.3 µM (inactive)	–	35.4 µM (inactive)
COC1=C(OC)C(=O)C(Cc2c(C)nc3sc(C)cn23)=C(C)C1=O	7.13 µM (inactive)	16.9 µM (inactive)	26.1 µM	17.4 µM (inactive)	17.7 µM (inactive)	20 µM (inactive)	18.5 µM (inactive)	16.1 µM (inactive)	17.4 µM (inactive)	18 µM (inactive)	17.4 µM (inactive)	20.2 µM (inactive)	–	22 µM (inactive)	26.3 µM (inactive)	15.1 µM (inactive)	19.3 µM (inactive)	19.8 µM (inactive)	11.6 µM (inactive)	16.7 µM (inactive)
